Tested on: Elastase
Test: Elastase-inhibiting effect of sterol derivatives
Format: biochemical
From the text: The elastase-inhibiting effect of various sterol derivatives was investigated in the concentration range from 2.5 to 1000 ppm.

Row | Compound | Elastase-inhibiting effect (2.5 ppm inhibitor) | Elastase-inhibiting effect (5 ppm inhibitor) | Elastase-inhibiting effect (12.5 ppm inhibitor) | Elastase-inhibiting effect (500 ppm inhibitor) | Elastase-inhibiting effect (1000 ppm inhibitor)
1 | CC(C)CCC[C@@H](C)[C@H]1CC[C@H]2[C@@H]3CC=C4C[C@@H](OS(=O)(=O)[O-])CC[C@]4(C)[C@H]3CC[C@]12C.[Na+] [Example 1, Cholesterol sulfate, sodium salt] | 49 %-rel | 92 %-rel | 100 %-rel | – | –
2 | CC(=O)O[C@H]1CC[C@@]2(C)C(=CC[C@H]3[C@@H]4CC[C@H]([C@H](C)CCCC(C)C)[C@@]4(C)CC[C@@H]32)C1 [Example C1, Cholesterol acetate] | 0 %-rel | 0 %-rel | 0 %-rel | 33 %-rel | 59 %-rel
3 | Phytosterol sulfate, sodium salt [Example 2] | 31 %-rel | 64 %-rel | 98 %-rel | – | –

Now from value to compound:

Row | Elastase-inhibiting effect (2.5 ppm inhibitor) | Elastase-inhibiting effect (5 ppm inhibitor) | Elastase-inhibiting effect (12.5 ppm inhibitor) | Elastase-inhibiting effect (500 ppm inhibitor) | Elastase-inhibiting effect (1000 ppm inhibitor) | Compound
4 | 0 %-rel | 0 %-rel | 0 %-rel | 0 %-rel | 30 %-rel | Phytosterol phosphate [Example C3]
5 | 0 %-rel | 0 %-rel | 0 %-rel | 0 %-rel | 0 %-rel | Phytosterol succinate [Example C2]
